In data set [1] the test system is membranes of human lung carcinoma (cancer) cells. As to the kind of experiment: EPR study of TEMPO partitioning into membranes of human lung carcinoma cells. The class given is physicochemical. The settings on record: for 2Aiso aqueous: TEMPO in aqueous phase. The method, then: (§1) The fresh lung tissue (about 2-3 h after the surgery) was washed thoroughly with PBS buffer to remove blood. Afterward, the tissue was cut into small pieces and then homogenized in PBS buffer using a glass homogenizer. The homogenized lung tissue was washed three times with PBS solution and then centrifuged (Eppendorf 5418) to remove the cell debris. Obtained cell suspension was used for the experiments. The intactness of the cells was assessed by Zeta-potential measurements as shown previously.
(§2) EPR measurements were performed using a Bruker ELEXSYS E580 spectrometer at X-band frequency with variable temperature accessory. The aqueous suspension of lung carcinoma and neighboring normal cells with TEMPO were placed into Pyrex capillary tubes with an I.D. of 0.6 mm. EPR spectra were recorded with the following instrument parameters: scan width: 100 Gauss; sweep time: 40 s; modulation amplitude: 1 Gauss; modulation frequency: 100 kHz; microwave power: 0.47 mW; and time constant: 0.1 s. Before the measurements, the samples were kept for 5 minutes at each temperature to ensure that the sample temperature matched the set temperatures.
(§3) The difference in the nitrogen splitting constant of TEMPO in hydrophobic (cell membrane) and hydrophilic (aqueous) environments is the reason for the split of the third component. Consequently, the EPR spectra of TEMPO incubated with cells in an aqueous environment reflect the partitioning of TEMPO in the lipid fraction of the cell membrane and aqueous environments. To resolve the spectral components, the EPR spectra of TEMPO were analyzed using the LabVIEW program developed by Christian Altenbach (https://sites.google.com/site/altenbach/), using the spectral simulation code written in FORTRAN [34]. Along with computer simulations, rotational correlation times of TEMPO were also calculated using the following formula that uses the peak heights and line widths of the first derivative EPR spectra:
(§4) where W0 is the width (in Gauss) of the central component, while h0 and h-1 are the heights of the central and high-magnetic field components of the first derivative EPR spectrum. As mentioned above, the EPR spectra resulting from the partitioning of TEMPO in the system are composite and consist of two components. Therefore, the formula above was applied after the decomposition of the EPR spectra into lipophilic and hydrophilic components. Because of the close similarity of the correlation times obtained from the software and the formula, data are shown only as deduced from the software.
(§5) Double integrals of the EPR spectral components (Imbrand Iaqrepresent TEMPO confined in the membrane and aqueous environments, respectively) were employed to calculate partition coefficients with the following formula: K = Imbr/(Imbr+ Iaq). To characterize the EPR spectral components, the membrane and aqueous environments were described as lipophylic and hydrophilic, respectively. Apparently, a partition coefficient depends on both the concentration of the lipid fractions and the number of lung cells in the aqueous system. For an accurate comparison of the data related to the partition coefficients, the same amount (by weight) of cancer and normal cell suspensions were used. Both cancer and normal cell suspensions were incubated with TEMPO (150 mM total concentration) for about 30 min. The experimental conditions used in this study allow us to compare the partition coefficients of the normal and cancer cells directly.
(§6) The temperature dependence of the equilibrium constant K (partition coefficient in our case) was used to calculate the free energy changes required to transfer TEMPO molecules from the aqueous to the lipid phase of the membranes of the healthy and cancer cells.
(§7) Similarly, the temperature dependence of the rotational correlation times of TEMPO was used to determine the activation energies for rotational motions in the membranes of the healthy and cancer cells.

The conditions of data set [2]: read-out: IC50 (cytotoxicity); cited from earlier work.
The test system of data set [3] is membranes of human lung normal (healthy) cells. As to the kind of experiment: EPR study of TEMPO partitioning into membranes of healthy (normal) human lung cells. The settings on record: for DGK (free energy change to transfer TEMPO from aqueous to lipid phase of the membrane) / DGt (∆Gτ, activation energy of rotational motions of TEMPO in the membrane) / 2Aiso aqueous / 2Aiso membrane: healthy cells; for DGK (free energy change to transfer TEMPO from aqueous to lipid phase of the membrane) / DGt (∆Gτ, activation energy of rotational motions of TEMPO in the membrane): 283–317 K; for 2Aiso aqueous: TEMPO in aqueous phase; for 2Aiso membrane: TEMPO in membrane. The class given is physicochemical. Here is the method: as §1, §2, §3, §4, §5, §6, §7

The conditions of data set [4]: from cited IC50 values.
Details of data set [5]: method as in PMID 38234602. Particulars: cited from earlier work.
Data set [6] relates to various cell lines related to breast, colon, liver, and ovary cancer. Further details: method as in PMID 9607601. The settings on record: range over cell lines related to breast, read-out: IC50 as an antiproliferative agent; cited from earlier work.
The next data set deals with HCT116 cell lines. Further details: method as in PMID 9607601. Particulars: cited from earlier work.
[7] abbreviates: cancer cells, pH 6.2, 283–317 K.
Setting [8] is: cancer cells, pH 7.3, 283–317 K.

By IC50 is commonly meant the concentration that inhibits the measured activity by half. In the case of `CC1(C)CCCC(C)(C)N1[O]` [TEMPO, 2,2,6,6-tetramethylpiperidine-1-oxyl], the “increase of free energy change of TEMPO transfer” value in data set [1] (cancer cell membranes, acidic transition from pH 7.3 to pH 6.2) was roughly 42%; in data set [3] (healthy cell membranes, acidic transition from pH 7.3 to pH 6.2), “about 19%”. The “rotational correlation time of TEMPO in membrane” value is “about 490 ps” in data set [1] (cancer cell membranes, room temperature, pH 7.3) and roughly 617 ps in data set [3] (healthy cell membranes, room temperature, pH 7.3). Moreover, in data set [1] (cancer cells at pH 7.3, free energy values compared for pH 6.2 and 7.3), the “less energy required for TEMPO partitioning” value was found to be 30%. In addition, the “DGK (free energy change to transfer TEMPO from aqueous to lipid phase of the membrane)” value in data set [1] (setting [7]) is recorded as 1.7 ± 0.1 kcal/mol; in data set [1] (setting [8]), 1.2 ± 0.1 kcal/mol; in data set [3] (pH 6.2) it was 3.7 ± 0.3 kcal/mol; in data set [3] (pH 7.3), 3.1 ± 0.1 kcal/mol. The “DGt (∆Gτ, activation energy of rotational motions of TEMPO in the membrane)” value in data set [1] (setting [7]) stood at 2.6 ± 0.3 kcal/mol; in data set [1] (setting [8]) it was 2.1 ± 0.2 kcal/mol; in data set [3] (pH 6.2) it was 3.8 ± 0.3 kcal/mol; in data set [3] (pH 7.3), 1.9 ± 0.2 kcal/mol. The 2Aiso aqueous in data set [1] (cancer cells, pH 6.2) is on record as 34.5 Gauss; in data set [1] (cancer cells, pH 7.3) it was 34.5 Gauss; in data set [3] (pH 6.2) it was 34.4 Gauss; in data set [3] (pH 7.3), 34.5 Gauss. In addition, the 2Aiso membrane in data set [1] (cancer cells, pH 7.3, TEMPO in membrane) was 31.5 Gauss; in data set [3] (pH 6.2) it was 31.9 Gauss; in data set [3] (pH 7.3), 32.4 Gauss. For the same molecule, the “TEMPO partition coefficient, cancer cells compared with healthy cells” value in data set [1] (cancer vs neighboring normal cells, 283–317 K, pH 7.3 and 6.2) is recorded as “significantly higher”. Also, the IC50 in data set [2] is 2700 µM. Moreover, the “2Aiso values of TEMPO incorporated into the membranes of the cells (interval)” value in data set [3] (membranes of healthy and cancer cells, pH 6.2 and 7.3) is on record as 31.4−32.4 Gauss. Further, the “IC50 of TEMPO relative to TEMPOL (fold lower)” value in data set [4] is listed as “about 4 fold”. The “partitioning into liposomes of cancer cell lipids compared to liposomes of normal cell lipids” value in data set [5] is recorded as “significantly enhanced partitioning”.
On to `CC1(C)CC(OC(=O)c2ccccc2)CC(C)(C)N1[O]` [TEMPO-benzoate], for which, in data set [5], the “partitioning in liposome studies” value is reported as “significantly enhanced partitioning”.
As for `CC1(C)CC(O)CC(C)(C)N1[O]` [TEMPOL, 4-hydroxy-TEMPO], the IC50 is 11400 µM in data set [2] and 210 to 1070 µM in data set [6].
Regarding `COc1cccc2c1C(=O)c1c(O)c3c(c(O)c1C2=O)C[C@@](O)(C(=O)CO)C[C@@H]3O[C@H]1C[C@H](N)[C@H](O)[C@H](C)O1` [doxorubicin], the “fold decrease of doxorubicin IC50 by TEMPOL pretreatment” value with HCT116 cell lines was roughly 7 fold.

(Values after article PMC10790361, “Membrane Partitioning of TEMPO Discriminates Human Lung Cancer from Neighboring Normal Cells” (Acta Naturae, 2023).)
